23 molecules from patent US20240285614A1, “PHENOL RIBONUCLEOTIDE REDUCTASE (RNR) INHIBITORS AND USES THEREOF” (Boundless Bio, Inc., priority 2023, published 2024) can be followed below.

One assay deals with T1, RNR (RNR1:RNR2 1:1) (Homo sapiens, UniProt P23921+P31350).
T1 sequence (P23921 1-792): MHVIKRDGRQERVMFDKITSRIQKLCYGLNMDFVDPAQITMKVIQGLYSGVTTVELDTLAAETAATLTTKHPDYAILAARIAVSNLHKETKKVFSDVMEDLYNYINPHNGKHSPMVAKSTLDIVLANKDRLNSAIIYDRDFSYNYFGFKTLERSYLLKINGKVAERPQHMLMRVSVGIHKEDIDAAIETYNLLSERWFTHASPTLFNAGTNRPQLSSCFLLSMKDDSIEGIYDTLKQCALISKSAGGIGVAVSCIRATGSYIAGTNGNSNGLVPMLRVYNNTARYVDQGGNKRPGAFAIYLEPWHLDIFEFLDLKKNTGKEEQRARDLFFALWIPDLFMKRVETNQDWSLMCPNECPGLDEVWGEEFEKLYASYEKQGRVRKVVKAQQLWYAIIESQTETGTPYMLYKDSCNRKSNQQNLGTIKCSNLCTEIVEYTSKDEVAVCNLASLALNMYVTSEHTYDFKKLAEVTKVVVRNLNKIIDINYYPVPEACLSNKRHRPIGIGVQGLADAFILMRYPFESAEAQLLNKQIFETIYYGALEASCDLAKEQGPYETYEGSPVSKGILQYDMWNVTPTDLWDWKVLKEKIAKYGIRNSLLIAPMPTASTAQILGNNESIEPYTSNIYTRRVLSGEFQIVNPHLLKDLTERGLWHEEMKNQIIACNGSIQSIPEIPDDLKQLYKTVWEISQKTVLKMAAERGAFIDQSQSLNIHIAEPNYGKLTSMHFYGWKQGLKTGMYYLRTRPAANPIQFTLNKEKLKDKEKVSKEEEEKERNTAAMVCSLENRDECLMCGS
T1 sequence (P31350 1-389): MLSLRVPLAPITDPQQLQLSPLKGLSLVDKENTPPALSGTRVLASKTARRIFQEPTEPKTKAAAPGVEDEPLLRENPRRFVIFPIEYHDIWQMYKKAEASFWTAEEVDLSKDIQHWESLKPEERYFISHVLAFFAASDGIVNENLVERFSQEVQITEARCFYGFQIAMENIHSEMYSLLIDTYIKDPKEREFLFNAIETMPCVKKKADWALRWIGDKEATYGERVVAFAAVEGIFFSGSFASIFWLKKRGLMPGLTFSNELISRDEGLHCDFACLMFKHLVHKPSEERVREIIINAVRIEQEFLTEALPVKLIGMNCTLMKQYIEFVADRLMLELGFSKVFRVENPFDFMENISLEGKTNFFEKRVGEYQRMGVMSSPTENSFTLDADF
Kind of assay: RNR enzyme activity, rapid-fire mass spectrometry (RF/MS) assay. The class given is biochemical. The conditions noted are these: RNR 50 nM, 1:1 (RNR1:RNR2); CDP 5 μM; ATP 1 mM; 37° C., 45 min; compounds screened up to 50 μM. On the procedure: A rapid-fire mass spectrometry (RF/MS) assay was used to assess RNR enzyme activity using a 384 well plate and a robotic platform.
The plate layout included two validated reference compounds (Triapine (3-AP) and Hydroxyurea (HU)): • A dose response in duplicate, top concentration: 5 μM (3-AP) and 250 μM (HU), semi-log • dilutions. • Spike wells in triplicate randomly spotted at four concentrations: • 250 μM, 100 μM, 30 μM and 2 μM for HU • 5 μM, 2 μM, 0.6 μM and 0.04 μM for 3-AP
First, the multidrop pipes were saturated for 30 minutes with enzymatic solution. Then 30 μL of Stop solution was distributed in column 24. Next, 15 μL of enzyme was distributed in column 1 to 24. Next, a pre-incubation step of 15 minutes at room temperature occurred, followed by distribution of 15 μL of substrate solution (column 1 to 24). Next, the plate was incubated for 45 minutes at 37° C. 30 μL of Stop solution was distributed to columns 1 to 23.
The final parameters for the enzyme reactions were: • Incubation: 37° C., 45 min • [CDP]: 5 μM: [ATP]: 1 mM; [NADPH]: No • [RNR]final: 50 nM with 1:1 (RNR1:RNR2) ratio • Final volume: 30 μL • Stop solution: 6% HCOOH containing 2 μM of 15

Assay [1] deals with pCHK1 (S345) in Colo320 DM cells. Kind of assay: Alphalisa assay, detection of pCHK1 (S345) in Colo320 DM cells. The class given is cell-based. The conditions noted are these: Homo sapiens, COLO 320DM, compound incubation overnight (approximately 16 hours). On the procedure:
Colo320 DM cells (ATCC #CCL-220, derived from human colorectal adenocarcinoma, Dukes' type C) were seeded on a 96-well, cell culture treated assay plate at a density of 50,000 cells/well in 200 μL of RPMI-1640 media supplemented with 10% Fetal Bovine Serum and incubated at 37° C. overnight. The following day, test compound dilutions were added directly to the plated cells by a Tecan digital dispenser to a final DMSO concentration of <0.5%, and incubated at 37° C. overnight (approximately 16 hours). The following day all cull culture media was removed from the cells. 75 μL of 1× AlphaLisa lysis buffer was added to each well and plates were agitated on a shaker for 30 minutes at room temperature. The lysis of cells and detection of pCHK1 (S345) were performed with regents contained within the AlphaLisa Sure Fire assay kit (Perkin Elmer #ALSU-PCHK1-A) according to the manufacturer's instructions. 10 μL of each lysate was then transferred to a white, 384-well assay plate (Perkin Elmer #6008280), 5 μL of Acceptor mix was then added to each well of lysate in the white, 384-well assay plate and incubated in the dark at room temperature for 60 minutes. 5 μL of Donor mix was then added to each well of the white, 384-well assay plate in subdued light and incubated at room temperature for 60 minutes. Plates were read on an Alpha Technology-compatible plate reader using standard AlphaLisa settings.
(Bead proximity is the source of the signal in Alpha formats.)

Each structure is given as a SMILES string.

For orientation: IC50 means the concentration that inhibits the measured activity by half. Higher therefore signals weaker potency. With `CN(c1ccc(O)cc1)C1CCN(S(=O)(=O)c2ccc3cc[nH]c3c2)C1` (racemic) [compound 20, rac-(R)-4-((1-((1H-indol-6-yl)sulfonyl)pyrrolidin-3-yl)(methyl)amino)phenol], the IC50 at RNR (RNR1:RNR2 1:1) was not above 50 nM; in assay [1] it was not above 1000 nM. The like results for `CN(c1ccc(O)cc1)C1CCN(S(=O)(=O)c2ccc3[nH]ccc3c2)C1` (racemic) [compound 30, rac-(R)-4-((1-((1H-indol-5-yl)sulfonyl)pyrrolidin-3-yl)(methyl)amino)phenol] were, in that order, not above 50 nM and not above 1000 nM. The like results for `CN(c1ccc(O)cc1)C1CCN(S(=O)(=O)c2cccc3[nH]ccc23)C1` (racemic) [compound 31, rac-(R)-4-((1-((1H-indol-4-yl)sulfonyl)pyrrolidin-3-yl)(methyl)amino)phenol] were, in that order, not above 50 nM and 1000 to 5000 nM. On to `CN(c1ccc(O)cc1)C1CCN(S(=O)(=O)c2cc3[nH]c(Cl)cc3cc2F)C1` (racemic) [compound 32, rac-(R)-4-((1-((2-chloro-5-fluoro-1H-indol-6-yl)sulfonyl)pyrrolidin-3-yl)(methyl)amino)phenol], for which, in assay [1], the IC50 was in the range of 1000 to 5000 nM.

For the molecule `C[C@@H]1[C@H](Nc2ccc(O)cc2)CN1S(=O)(=O)c1ccc2cc[nH]c2c1` (racemic) [compound 36, rac-4-(((2R,3R)-1-((1H-indol-6-yl)sulfonyl)-2-methylazetidin-3-yl)amino)phenol], the IC50 against RNR (RNR1:RNR2 1:1) lay within 100 to 500 nM; in assay [1], 1000 to 5000 nM.

As to `C[C@@H]1C[C@H](N(C)c2ccc(O)cc2)CN1S(=O)(=O)c1ccc2cc[nH]c2c1` (racemic) [compound 37, rac-4-(((3R,5S)-1-((1H-indol-6-yl)sulfonyl)-5-methylpyrrolidin-3-yl)(methyl)amino)phenol], the IC50 against RNR (RNR1:RNR2 1:1) is not above 50 nM; in assay [1], 1000 to 5000 nM. The like results for `CN(c1ccc(O)cc1)C1CN(S(=O)(=O)c2ccc3cc[nH]c3c2)C2(CC2)C1` (racemic) [compound 38, rac-(R)-4-((4-((1H-indol-6-yl)sulfonyl)-4-azaspiro[2.4]heptan-6-yl)(methyl)amino)phenol] were, in that order, not above 50 nM and 1000 to 5000 nM. As to `C[C@@H]1CN(S(=O)(=O)c2ccc3cc[nH]c3c2)C[C@H]1N(C)c1ccc(O)cc1` (racemic) [compound 39, rac-4-(((3R,4S)-1-((1H-indol-6-yl)sulfonyl)-4-methylpyrrolidin-3-yl)(methyl)amino)phenol], the figures for the concentration for half-maximal inhibition (IC50) (on RNR (RNR1:RNR2 1:1); in assay [1]) were not above 50 nM and 1000 to 5000 nM, respectively. `C[C@H]1C[C@H](N(C)c2ccc(O)cc2)CN1S(=O)(=O)c1ccc2cc[nH]c2c1` (racemic) [compound 48, rac-4-(((3R,5R)-1-((1H-indol-6-yl)sulfonyl)-5-methylpyrrolidin-3-yl)(methyl)amino)phenol] yielded an IC50 in assay [1] of 1000 to 5000 nM.

For `Cn1ccc2cccc(S(=O)(=O)N3CCN(c4ccc(O)cc4)CC3)c21` [compound 1, 4-(4-((1-methyl-1H-indol-7-yl)sulfonyl)piperazin-1-yl)phenol], the results for the IC50 (against RNR (RNR1:RNR2 1:1); in assay [1]) were not above 50 nM and 5000 to 10000 nM, respectively.

For `O=S(=O)(c1ccc2cc[nH]c2c1)N1CCN(c2ccc(O)cc2)CC1` [compound 2, 4-(4-((1H-indol-6-yl)sulfonyl)piperazin-1-yl)phenol], the values for the concentration for half-maximal inhibition (IC50) (against RNR (RNR1:RNR2 1:1); in assay [1]) were 50 to 100 nM and 1000 to 5000 nM, respectively. Consider `Cn1ccc2ccc(S(=O)(=O)N3CCN(c4ccc(O)cc4)CC3)cc21` [compound 3, 4-(4-((1-methyl-1H-indol-6-yl)sulfonyl)piperazin-1-yl)phenol], for which the 50% inhibitory concentration (IC50) fell in the range of 100 to 500 nM against RNR (RNR1:RNR2 1:1) and 5000 to 10000 nM in assay [1]. The like results for `Cn1ccc2cc(S(=O)(=O)N3CCN(c4ccc(O)cc4)CC3)ccc21` [compound 4, 4-(4-((1-methyl-1H-indol-5-yl)sulfonyl)piperazin-1-yl)phenol] were, in that order, 100 to 500 nM and 5000 to 10000 nM. For `O=S(=O)(c1cccc2cc[nH]c12)N1CCN(c2ccc(O)cc2)CC1` [compound 5, 4-(4-((1H-indol-7-yl)sulfonyl)piperazin-1-yl)phenol], the half-inhibitory concentration (IC50) at RNR (RNR1:RNR2 1:1) lay in the range of 100 to 500 nM; in assay [1], 1000 to 5000 nM. In the case of `Cn1ccc2cc(S(=O)(=O)N3CCN(c4ccc(O)cc4)CC3)cnc21` [compound 6, 4-(4-((1-methyl-1H-pyrrolo[2,3-b]pyridin-5-yl)sulfonyl)piperazin-1-yl)phenol], the IC50 on RNR (RNR1:RNR2 1:1) lay within 100 to 500 nM; in assay [1] it was 10000 to 50000 nM. The like results for `O=S(=O)(c1cccc2[nH]ccc12)N1CCN(c2ccc(O)cc2)CC1` [compound 7, 4-(4-((1H-indol-4-yl)sulfonyl)piperazin-1-yl)phenol] were, in that order, 50 to 100 nM and 1000 to 5000 nM.

In assay [1], `O=S(=O)(c1ccc2cc[nH]c2c1)N1CC=C(c2ccc(O)cc2)CC1` [compound 8, 4-[1-(1H-indol-6-ylsulfonyl)-3,6-dihydro-2H-pyridin-4-yl]phenol] gave an IC50 of 1000 to 5000 nM. Regarding `O=S(=O)(c1ccc2[nH]ccc2c1)N1CCN(c2ccc(O)cc2)CC1` [compound 9, 4-(4-((1H-indol-5-yl)sulfonyl)piperazin-1-yl)phenol], the IC50 against RNR (RNR1:RNR2 1:1) is 100 to 500 nM; in assay [1] it was 5000 to 10000 nM. The like results for `O=S(=O)(NC1CN(c2ccc(O)cc2)C1)c1ccc2cc[nH]c2c1` [compound 10, N-(1-(4-hydroxyphenyl)azetidin-3-yl)-1H-indole-6-sulfonamide] were, in that order, 50 to 100 nM and 1000 to 5000 nM. The like results for `O=S(=O)(c1ccc2cc[nH]c2c1)N1CC(Nc2ccc(O)cc2)C1` [compound 11, 4-((1-((1H-indol-6-yl)sulfonyl)azetidin-3-yl)amino)phenol] were, in that order, not above 50 nM and 1000 to 5000 nM.

For the molecule `O=S(=O)(c1ccc2cc[nH]c2c1)N1CCN(c2ccc(O)cc2)CC12CC2` [compound 33, 4-(4-((1H-indol-6-yl)sulfonyl)-4,7-diazaspiro[2.5]octan-7-yl)phenol], in assay [1], the IC50 fell in the range of 1000 to 5000 nM. On the same count and under the same terms, next, `O=C1C[C@@H]2CN(S(=O)(=O)c3ccc4cc[nH]c4c3)C[C@H](C1)N2c1ccc(O)cc1` [compound 42, (1R,5S)-3-((1H-indol-6-yl)sulfonyl)-9-(4-hydroxyphenyl)-3,9-diazabicyclo[3.3.1]nonan-7-one]: 1000 to 5000 nM. Same read-out and setting: next, `O=S(=O)(c1ccc2cc[nH]c2c1)N1CCC2C1CCCN2c1ccc(O)cc1` (stereo not shown) [compound 49, 4-(1-((1H-indol-6-yl)sulfonyl)octahydro-4H-pyrrolo[3,2-b]pyridin-4-yl)phenol]: 1000 to 5000 nM.
